Earlier results, collected in patent US5843942A, “Aromatic amino ethers as pain relieving agents” (Zeneca Limited, priority 1994, dated 1998).

Tests used:
[1] = test system: guinea pig ileum
[2] = test system: dog fundus
[3] = test system: cat trachea

CC(=O)NNC(=O)N1Cc2ccccc2Oc2ccc(Cl)cc21 [SC-19220]
block of the effect of PGE2 [1]: blocks the effect of PGE2
block of the effect of PGE2 [2]: blocks the effect of PGE2
block of the effect of PGE2 [3]: not on other tissues such as the cat trachea
